Reference: patent publication US11186576B2, “Pyrazolo[1,5-A][1,3,5]triazine and pyrazolo[1,5-A]pyrimidine derivatives as CDK inhibitors” (Aurigene Discovery Technologies Limited, priority 2015, dated 2021)

Tests used:
[1] = target: CDK7/CycH/MNAT1 (Homo sapiens (Human), UniProt P50613); test: Biochemical assay for CDK7 (TR-FRET kinase assay); details: 60 min pre-incubation, 1 mM ATP; for inhibition at 10 µM: 10 μM compound, read-out: % inhibition @ 10 μM; for IC50: read-out: IC50
Summary of the method: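 CDK7/CycH/MNAT1 (5 nM) was preincubated with compound for 60 min at room temperature, then reacted for 60 min with 100 nM ULight-MBP and 1 mM ATP in 1% DMSO. Irreversibility was probed with 20, 60 and 180 min preincubations.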

[2] = test system: RNA polymerase II CTD phosphorylation (MDA-MB-231/NCI-H358 cells); test: Inhibition of RNA polymerase II CTD phosphorylation in cell western assay; format: cell-based; details: 4 hours incubation, phospho RNA Pol II Ser-5 or Ser-2
Method: 25000 cells (MDA-MB-231/NCI-H358) were seeded in 96 well black clear bottom plate incubated for overnight before addition of selected compound. 3 fold dilutions of selected compound diluted in DMSO starting from 10 μM, added to cells and incubated for 4 hours at 37° C., 5% CO2 incubator. Cells were washed once with 100 μl of phosphate buffered saline (sigma #P3813), then fixed with 100 μl/well of 4% Para formaldehyde for 60 min at room temperature, in dark. The cells were washed 3 times with 100 μl of wash buffer (PBS with 0.1% Triton-X-100), later blocked for 2 hours at room temperature in blocking buffer (5% BSA in PBST). Cells were stained overnight at 4° C. with Phospho RNA Pol II (S5) (Millipore #04-1572, Abcam #5131) or Phospho RNA Pol II (Ser-2), antibody (Bethyl labs #A300-654-A) in blocking buffer. Post incubation cells were washed with Delifia wash buffer (Perkin Elmer #4010-0010). Cells were treated with LANCE secondary antibodies (LANCE® Eu-W1024 perkin elmer #AD-0076 for phospho Ser-5 CTD RNA pol-II and Delfia Eu-N1 anti rabbit IgG Perkin elmer #AD0106 for phospho Ser-2 CTD RNA pol-II) for 2 hours in assay buffer (Perkin Elmer #1244-111), Cells were washed 3 times with Delfia wash buffer post incubation, Enhancement solution (Perkin Elmer #1244-105) added and incubated for 20 mins. Europium readings were taken in Victor-3 instrument. Cell normalization was done using Hoechst dye (0.5 μg/ml).
Selected compounds were screened in the above mentioned assay procedure. The EC50 values are summarised in the below table; wherein group “A” refers to an EC50 value of less than or equal to 1 μM, group “B” refers to EC50 value in range of 1 to 10 μM and group “C” refers to EC50 value of greater than 10 μM.

CDK7/CycH/MNAT1, sequence (P50613 whole entry): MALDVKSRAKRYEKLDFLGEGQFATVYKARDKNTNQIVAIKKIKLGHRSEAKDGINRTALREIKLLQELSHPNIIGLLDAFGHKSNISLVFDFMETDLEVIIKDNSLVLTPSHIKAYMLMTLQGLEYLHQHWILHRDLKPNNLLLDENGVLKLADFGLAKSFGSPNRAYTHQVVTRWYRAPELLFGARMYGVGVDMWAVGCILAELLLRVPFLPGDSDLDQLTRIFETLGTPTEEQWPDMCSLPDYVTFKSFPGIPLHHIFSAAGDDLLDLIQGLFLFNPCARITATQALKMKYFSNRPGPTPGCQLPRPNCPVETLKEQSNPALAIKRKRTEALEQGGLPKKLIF
CDK7/CycH/MNAT1, sequence (P51946 whole entry partner): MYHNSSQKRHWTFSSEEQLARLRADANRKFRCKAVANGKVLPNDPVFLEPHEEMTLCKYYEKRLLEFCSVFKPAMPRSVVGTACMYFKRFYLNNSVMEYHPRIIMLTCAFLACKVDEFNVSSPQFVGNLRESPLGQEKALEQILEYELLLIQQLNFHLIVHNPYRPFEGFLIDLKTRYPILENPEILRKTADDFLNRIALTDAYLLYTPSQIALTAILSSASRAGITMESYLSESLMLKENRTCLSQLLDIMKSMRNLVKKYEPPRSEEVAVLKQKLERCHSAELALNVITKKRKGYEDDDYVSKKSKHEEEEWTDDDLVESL
CDK7/CycH/MNAT1, sequence (P51948 whole entry partner): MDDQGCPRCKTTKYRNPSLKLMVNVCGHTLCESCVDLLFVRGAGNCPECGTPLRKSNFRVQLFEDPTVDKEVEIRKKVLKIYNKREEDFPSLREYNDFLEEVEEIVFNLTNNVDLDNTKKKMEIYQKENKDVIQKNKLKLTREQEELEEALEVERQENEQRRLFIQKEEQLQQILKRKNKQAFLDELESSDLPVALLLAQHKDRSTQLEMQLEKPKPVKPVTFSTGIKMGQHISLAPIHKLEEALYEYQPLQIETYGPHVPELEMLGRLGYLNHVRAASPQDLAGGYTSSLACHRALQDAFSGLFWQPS

Row | SMILES | inhibition at 10 µM [1] [%] | IC50 [1] [µM] | EC50 [2] [µM]
1 | C=CC(=O)Nc1cn(C)nc1C(=O)Nc1cccc(CNc2nc(NC3CCOCC3)nc3c(C(C)C)cnn23)c1 [Compound 85, 4-acrylamido-N-(3-(((8-isopropyl-2-((tetrahydro-2H-pyran-4-yl)amino)pyrazolo[1,5-a][1,3,5]triazin-4-yl)amino)methyl)phenyl)-1-methyl-1H-pyrazole-3-carboxamide] | 99 | < 0.3 | 1 to 10
2 | C=CC(=O)N1CCC(C(=O)Nc2cccc(CNc3nc(OC4CCN(C)CC4)nc4c(CC)cnn34)c2)CC1 [Compound 88, 1-acryloyl-N-(3-(((8-ethyl-2-((1-methylpiperidin-4-yl)oxy)pyrazolo [1,5-a][1,3,5]triazin-4-yl)amino)methyl)phenyl)piperidine-4-carboxamide] | 97 | < 0.3 | 1 to 10
3 | C=CC(=O)N[C@H]1CC[C@@H](C(=O)Nc2cccc(CNc3nc(OC4CCN(C)CC4)nc4c(CC)cnn34)c2)CC1 [Compound 90, (1,4-cis)-4-acrylamido-N-(3-(((8-ethyl-2-((1-methylpiperidin-4-yl)oxy)pyrazolo[1,5-a][1,3,5]triazin-4-yl)amino)methyl)phenyl)cyclohexane-1-carboxamide] | 95 | < 0.3 | 1 to 10
4 | C=CC(=O)N[C@H]1CC[C@H](C(=O)Nc2cccc(CNc3nc(OC4CCN(C)CC4)nc4c(C(C)C)cnn34)c2)CC1 [Compound 91, (1,4-trans)-4-acrylamido-N-(3-(((8-isoproprayl-2-((1-methylpiperidin-4-yl)oxy)pyrazolo[1,5-a][1,3,5]triazin-4-yl)amino)methyl)phenyl)cyclohexane-1-carboxamide] | 94 | < 0.3 | > 10
5 | C=CC(=O)N1CCC1C(=O)Nc1cccc(CNc2nc(OC3CCN(C)CC3)nc3c(C(C)C)cnn23)c1 (stereo not drawn) [Compound 94, 1-acryloyl-N-(3-(((8-isopropyl-2-((1-methylpiperidin-4-yl)oxy)pyrazolo[1,5-a][1,3,5]triazin-4-yl)amino)methyl)phenyl)azetidine-2-carboxamide] | 99 | < 0.3 | ≤ 1
6 | C=CC(=O)N1CCC(C(=O)Nc2cccc(CNc3nc(OC4CCOCC4)nc4c(C(C)C)cnn34)c2)C1 (stereo not drawn) [Compound 95, 1-acryloyl-N-(3-(((8-isopropyl-2-((tetrahydro-2H-pyran-4-yl)oxy)pyrazolo[1,5-a][1,3,5]triazin-4-yl)amino)methyl)phenyl)pyrrolidine-3-carboxamide] | 93 | < 0.3 | ≤ 1
7 | C=CC(=O)N1CCCC(C(=O)Nc2cccc(CNc3nc(OC4CCOCC4)nc4c(C(C)C)cnn34)c2)C1 (stereo not drawn) [Compound 96, 1-acryloyl-N-(3-(((8-isopropyl-2-((tetrahydro-2H-pyran-4-yl)oxy)pyrazolo[1,5-a][1,3,5]triazin-4-yl)amino)methyl)phenyl)piperidine-3-carboxamide] | 87 | 0.3 to 1 | 1 to 10
8 | C=CC(=O)N[C@H]1CC[C@@H](C(=O)Nc2cccc(CNc3nc(OC4CCOCC4)nc4c(C(C)C)cnn34)c2)CC1 [Compound 97, (1,4-cis)-4-acrylamido-N-(3-(((8-isopropyl-2-((tetrahydro-2H-pyran-4-yl)oxy)pyrazolo[1,5-a][1,3,5]triazin-4-yl)amino)methyl)phenyl)cyclohexane-1-carboxamide] | 87 | 0.3 to 1 | 1 to 10
9 | C=CC(=O)N[C@H]1CC[C@@H](C(=O)Nc2cccc(CNc3nc(OC4CCN(C)C4)nc4c(C(C)C)cnn34)c2)CC1 (stereo partly drawn) [Compound 101, (1,4-cis)-4-acrylamido-N-(3-(((8-isopropyl-2-((1-methylpyrrolidin-3-yl)oxy)pyrazolo[1,5-a][1,3,5]triazin-4-yl)amino)methyl)phenyl)cyclohexane-1-carboxamide] | 96 | < 0.3 | 1 to 10
